Results from patent publication US20130150430A1, “Methods for Impairing the P53/HDM2 Auto-Regulatory Loop in Multiple Myeloma Development Using mIR-192, mIR-194 and mIR-215” (THE OHIO STATE UNIVERSITY, priority 2011, published 2013).

System: miR-192 and miR-194 in WT TP53 MM cell lines
Assay: qRT-PCR of miRNAs after demethylation agent
Type: cell-based, human
Settings: 10 μM, 3 days, vs DMSO

Nc1ncn([C@@H]2O[C@H](CO)[C@@H](O)[C@H]2O)c(=O)n1 [Azacytidine]
expression of miR-194-2-192 cluster miRNAs: increased
